Values quoted from earlier work, collected in patent publication US20240325452A1, “METHODS AND COMPOSITIONS FOR DREADD-ACTIVATABLE CELLS FOR NEURAL REPAIR” (Drexel University, priority 2023, published 2024).

How the values were obtained:
[1] = target: hM3Dq (Homo sapiens, UniProt P20309, A239G/Y149C); details: hM3 with two point mutations
[2] = it has been reported
[3] = tested on: hM3Dq and hM4Di DREADDs; details: marketed ligands, active in vivo

Sequence of hM3Dq (P20309 whole entry Y149C/A239G): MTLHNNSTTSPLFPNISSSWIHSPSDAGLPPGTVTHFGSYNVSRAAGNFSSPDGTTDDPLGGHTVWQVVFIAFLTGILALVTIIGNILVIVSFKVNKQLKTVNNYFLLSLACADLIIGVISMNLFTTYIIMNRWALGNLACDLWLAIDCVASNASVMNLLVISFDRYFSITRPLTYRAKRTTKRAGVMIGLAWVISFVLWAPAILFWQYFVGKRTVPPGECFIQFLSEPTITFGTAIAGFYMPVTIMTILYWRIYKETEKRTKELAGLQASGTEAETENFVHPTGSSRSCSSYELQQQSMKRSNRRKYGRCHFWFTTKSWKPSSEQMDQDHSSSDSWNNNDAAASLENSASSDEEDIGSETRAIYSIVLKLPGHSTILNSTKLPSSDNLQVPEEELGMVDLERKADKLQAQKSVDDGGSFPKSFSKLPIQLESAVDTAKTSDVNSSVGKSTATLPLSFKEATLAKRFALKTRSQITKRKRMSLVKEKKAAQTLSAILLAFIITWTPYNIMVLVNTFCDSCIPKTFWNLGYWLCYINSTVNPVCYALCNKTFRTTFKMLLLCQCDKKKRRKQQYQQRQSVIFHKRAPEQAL

In the case of C[N+]1([O-])CCN(C2=Nc3cc(Cl)ccc3Nc3ccccc32)CC1 [CNO, clozapine N-oxide], the “potency at mutant receptor” value [1] is given as “nanomolar potency”.
In the case of c1ccc2c(c1)N=C(N1CCNCC1)c1ccccc1N2 [Compound 21], the “bioavailability, pharmacokinetic properties and brain penetrability” value [2] is given as “excellent” and the “reverse metabolism to clozapine” value [2] is given as “does not undergo reverse metabolism to clozapine”.
In the case of CCN1CCN(C2=Nc3cc(Cl)ccc3Nc3c(F)cccc32)CC1 [JHU37160], the potency and affinity [3] is given as “high potency and affinity”.
